# Results taken from patent US10822318B2, “Lactone-based probes and methods of use thereof” (REGENTS OF THE UNIVERSITY OF MINNESOTA, priority 2017, dated 2020).
# Key:
# E. coli = conditions: cited from earlier work
# S. pyogenes = conditions: mice infected with S. pyogenes; cited from earlier work
# [1] = system: S. pneumoniae IU1945 PBPs; assay: Competition assays with Boc-FL for S. pneumoniae IU1945 PBPs; format: cell-based; conditions: S. pneumoniae IU1945 cells
# Description: The protocol for SDS-PAGE gel preparation was previously described (Kocaoglu, O, et al. (2013) Curr Protoc Chem Biol 5, 239). Briefly, polyacrylamide gels were composed of 10% resolving gel (10.5 ml of 1.5 M Tris-HCl buffer pH 8.8, 10.5 ml of acrylamide:bis-acrylamide 29:1 (40% solution), 21 ml of H2O, 140 μl of 10% APS, 15 μl of tetramethylethylenediamine (TEMED)) and 4.5% stacking gel (2.5 ml of 0.5 M Tris-HCl buffer pH 6.8, 1.125 ml of acrylamide:bis-acrylamide 29:1 (40% solution), 6.375 ml of H2O, 30 μl of 10% APS, 10 μl of TEMED). Running parameters were 180 V, 400 mA, and 60 W for 1.5 h. Experiments to examine competition of acyl homoserine lactones or p-toluenesulfonic acid salts of the β-lactones with Boc-FL were performed with acrylamide:bis-acrylamide ratio of 37.5:1.
# Cells from 1.5 ml of culture were harvested by centrifugation (16,100×g for 2 min at RT) and washed with 1 ml of PBS, pH 7.4. Cell pellets were resuspended in 50 μl of PBS containing 5, 10, and 20 μg/ml of β-lactone p-toluenesulfonic salts and incubated for 40 min at RT. Cells were pelleted and washed in 1 ml of PBS. Next, the cells were resuspended in 50 μl of PBS containing 5 μg/ml Boc-FL and incubated for 10 min at RT. Finally, the cells were resuspended in 100 μl PBS containing 1 or 10 mg/ml lysozyme and incubated for 30 min at 37° C. […]
# PBP2x = target: T1, PBP2x (Streptococcus pneumoniae, UniProt P59676); assay: Methicillin pre-treatment controls, gel-based analysis; format: cell-based, S. pneumoniae; conditions: 7FL labeling
# T1 construct: endogenous in cells; host or cells: S. pneumoniae IU1945 and E193 (Δpbp1b)
# Description: Cells from 1.5 ml of S. pneumoniae IU1945 and E193 cultures at exponential phase (OD620˜0.2) were harvested by centrifugation (16,100×g for 2 min at RT) and washed with 1 ml of PBS, pH 7.4. Cell pellets were resuspended in 50 μl of PBS containing 0.1 μg/ml of methicillin and incubated for 30 min at RT. Cells were pelleted and washed in 1 ml of PBS. Next, the cells were resuspended in 50 μl of PBS containing 1 or 5 μg/ml of lac-L-Phe-FL or 5 μg/ml Boc-FL (as control) and incubated for 20 min at RT (10 min at RT for Boc-FL). Finally, the cells were resuspended in 100 μl PBS containing 1 or 10 mg/ml lysozyme and incubated for 30 min at 37° C. Cells were lysed and sample preparation for SDS-PAGE gel-based analysis was performed as described.
# S. pneumoniae cells = assay: 3D-SIM imaging of lactone probe labeled cells; format: cell-based; conditions: wild-type and Δpbp1b strains, ≈41 cells examined
# Description: Cells from an overnight culture were diluted to OD620 0.02 in 2 ml of fresh BHI prewarmed to 37° C. and incubated at 37° C. in an atmosphere of 5% CO2. At OD620 0.2, 1.5 ml of culture was added to a microfuge tube and centrifuged at room temperature for 5 min at 16000×g. The supernatant was discarded, the pellet was resuspended in 1 ml room temperature PBS, and the culture was centrifuged a second time. The supernatant was discarded and the pellet was resuspended in either 50 μl of PBS with 5 μg mL^−1 7FL or 100 μl PBS with 5 μg mL^−1 8T. The cells were incubated for 20 min at room temperature in the dark. After incubation the cells were spun and washed with 1 ml of PBS (7FL) or 1 ml of PBS containing 50 mM glucose (8T). The cells were spun a second time and washed with 200 μl of PBS (7FL) or 200 μl of PBS with 50 mM glucose (8T), and finally spun a third time and resuspended in 100 μl of cold (4° C.) GTE buffer (50 mM glucose, 20 mM Tris pH 7.5, 1 mM EDTA). The cells were spun down at 4° C., the supernatant was discarded, and the pellet was resuspended in 15 μl of Vectashield Hardest Antifade (Vector Labs) and kept on ice. 1.2 μl of cells in antifade was pipetted onto a clean coverslip, applied to a slide, and imaged via 3D-SIM. 3D-SIM was performed using the OMX 3D-SIM super-resolution system located in the Indiana University Bloomington Light Microscopy Imaging Center (www.indiana.edu/˜lmic/microscopes/index.html#OMX). The system used is equipped with four Photometrics Cascade II EMCCD cameras that allow simultaneous imaging of up to four colors, and is controlled by DV-OMX software, with image processing by Applied Precision softWoRx 6.0.0 software. Exposure times and % T settings for DAPI, Alexa 488, and Alexa 568 images were 5 ms and 100% for all three channels.
# For pre-treatment with methicillin followed by lactone probe labeling, duplicate 2 ml cultures of each strain were created and incubated as described above. At OD620 0.12, methicillin was added to a final concentration of 0.1 μg mL^−1 to one culture for each strain, and the strains were placed back in the incubator. After 20 min, all cultures were harvested, labeled, and imaged as described above.
# For labeling of cells with both lactone probes, the following changes were made: After a 20 min incubation with 7FL, the cells were spun down and washed once in 1 ml of PBS. The cells were spun again and resuspended in 100 μl of 8T in PBS at 5 μg mL^−1. The cells were incubated for 20 min at room temperature in the dark, and then washed and imaged as described above for 8T labeling.
# PBP3 = conditions: cited from earlier work
# PBP1b = conditions: cited from earlier work
# T1 sequence (P59676 whole entry): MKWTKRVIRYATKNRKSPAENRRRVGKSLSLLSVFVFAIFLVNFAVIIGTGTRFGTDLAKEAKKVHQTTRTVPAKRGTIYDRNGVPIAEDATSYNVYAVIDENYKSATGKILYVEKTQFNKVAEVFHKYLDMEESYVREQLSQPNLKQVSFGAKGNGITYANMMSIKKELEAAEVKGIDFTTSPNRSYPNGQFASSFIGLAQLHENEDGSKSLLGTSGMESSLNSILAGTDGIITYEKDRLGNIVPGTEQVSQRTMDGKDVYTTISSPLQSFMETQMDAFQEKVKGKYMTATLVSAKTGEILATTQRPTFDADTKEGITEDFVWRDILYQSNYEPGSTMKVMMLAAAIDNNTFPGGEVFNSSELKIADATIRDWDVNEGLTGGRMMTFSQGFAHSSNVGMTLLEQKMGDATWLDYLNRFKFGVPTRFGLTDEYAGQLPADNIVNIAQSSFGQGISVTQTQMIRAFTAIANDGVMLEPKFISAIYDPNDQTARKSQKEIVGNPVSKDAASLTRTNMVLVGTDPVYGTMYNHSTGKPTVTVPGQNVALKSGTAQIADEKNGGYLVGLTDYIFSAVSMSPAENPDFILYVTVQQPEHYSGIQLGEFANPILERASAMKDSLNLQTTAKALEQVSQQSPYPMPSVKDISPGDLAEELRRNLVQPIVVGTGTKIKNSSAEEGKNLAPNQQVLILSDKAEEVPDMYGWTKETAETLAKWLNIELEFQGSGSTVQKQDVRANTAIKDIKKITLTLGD
compound,measurement,setting,value
"O=C(N[C@@H]1C(=O)O[C@@H]1Cc1ccc([N+](=O)[O-])cc1)c1cccc(O)c1O [Obafluorin, obafluorin]",effect on cell morphology,E. coli,causes cell elongation
same,protection of infected mice,S. pyogenes,provides protection
"CC(=O)N[C@@H]1C(=O)O[C@@H]1C [SQ 26,517]",PBP inhibition (competition with Boc-FL),[1],very weak inhibitor of PBP2a
"COc1cccc(OC)c1C(=O)N[C@@H]1C(=O)N2[C@@H]1SC(C)(C)[C@@H]2C(=O)O [methicillin, reference compound]",PBP2x labeling following methicillin treatment,PBP2x,dramatically decreased
same,methicillin-treated late division cells displaying empty septal rings,S. pneumoniae cells; labeled with 7FL,> 98%
same,methicillin-treated late divisional cells showing empty septal rings,S. pneumoniae cells; labeled with 8T,> 98%
[^3H]benzylpenicillin,deacylation rate,PBP3,5.7e-05 s⁻¹
same,deacylation rate,PBP1b,5.6e-05 s⁻¹
